In general, residual activity refers to the signal under treatment as a percentage of the control signal.

Drawing on ChEMBL document CHEMBL3039007, “Structure-based identification of OATP1B1/3 inhibitors” (Mol Pharmacol, 2013), this text covers residual activity for 38 molecules.

In data set [1] the target is T1, Solute carrier organic anion transporter family member 1B1 (Homo sapiens, UniProt Q9Y6L6).
T1 sequence (Q9Y6L6 whole entry): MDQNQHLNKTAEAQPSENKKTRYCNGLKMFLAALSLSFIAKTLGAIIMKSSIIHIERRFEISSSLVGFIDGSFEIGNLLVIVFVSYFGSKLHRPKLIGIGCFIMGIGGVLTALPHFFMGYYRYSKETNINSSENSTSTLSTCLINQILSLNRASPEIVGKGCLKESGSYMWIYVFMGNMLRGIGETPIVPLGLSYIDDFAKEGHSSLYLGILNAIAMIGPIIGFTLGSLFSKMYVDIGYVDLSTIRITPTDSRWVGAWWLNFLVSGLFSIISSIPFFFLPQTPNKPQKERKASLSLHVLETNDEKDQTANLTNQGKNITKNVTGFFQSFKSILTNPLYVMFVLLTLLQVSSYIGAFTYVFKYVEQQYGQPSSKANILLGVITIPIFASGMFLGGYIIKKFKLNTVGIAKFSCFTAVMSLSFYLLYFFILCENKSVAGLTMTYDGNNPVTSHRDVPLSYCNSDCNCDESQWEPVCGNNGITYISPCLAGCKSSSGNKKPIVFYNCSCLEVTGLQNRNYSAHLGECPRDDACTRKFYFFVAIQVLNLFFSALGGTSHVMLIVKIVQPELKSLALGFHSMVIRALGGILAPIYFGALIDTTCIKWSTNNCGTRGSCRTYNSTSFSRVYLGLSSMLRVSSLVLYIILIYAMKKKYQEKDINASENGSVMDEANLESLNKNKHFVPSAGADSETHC
The note with it: chinese hamster, cho, 10 µM.

The target of data set [2] is T2, Solute carrier organic anion transporter family member 1B3 (Homo sapiens, UniProt Q9NPD5).
T2 sequence (Q9NPD5 whole entry): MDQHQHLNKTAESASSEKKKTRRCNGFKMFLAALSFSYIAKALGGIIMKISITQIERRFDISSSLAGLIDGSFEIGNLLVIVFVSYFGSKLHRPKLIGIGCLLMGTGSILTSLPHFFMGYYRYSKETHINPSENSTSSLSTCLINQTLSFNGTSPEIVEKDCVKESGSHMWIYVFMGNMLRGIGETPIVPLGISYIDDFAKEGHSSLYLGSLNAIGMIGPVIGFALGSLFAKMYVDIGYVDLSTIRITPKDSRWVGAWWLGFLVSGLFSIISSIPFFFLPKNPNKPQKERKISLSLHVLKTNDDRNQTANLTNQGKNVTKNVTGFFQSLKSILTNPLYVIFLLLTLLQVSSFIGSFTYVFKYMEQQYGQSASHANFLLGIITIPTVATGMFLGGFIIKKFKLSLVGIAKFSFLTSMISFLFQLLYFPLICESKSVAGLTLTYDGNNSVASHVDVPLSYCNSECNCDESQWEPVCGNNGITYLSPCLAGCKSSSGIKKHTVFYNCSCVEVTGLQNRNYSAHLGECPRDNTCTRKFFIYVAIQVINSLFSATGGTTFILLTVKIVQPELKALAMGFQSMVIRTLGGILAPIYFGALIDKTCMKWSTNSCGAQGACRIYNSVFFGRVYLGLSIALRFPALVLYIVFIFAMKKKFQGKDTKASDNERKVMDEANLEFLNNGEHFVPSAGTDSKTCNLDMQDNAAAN
Particulars: chinese hamster, cho, 10 µM.

Turning to `NS(=O)(=O)c1cc2c(cc1Cl)NC(C(Cl)Cl)NS2(=O)=O` (stereo unspecified) [TRICHLORMETHIAZIDE], the residual activity in data set [1] is 81.82%; in data set [2] it was 86.79%.

Take `CC(C)=CCOc1c2occc2cc2ccc(=O)oc12` [PENTOSALEN]: the residual activity in data set [1] worked out at 222.8%; in data set [2] it was 131.4%.

For `CCN(CC)CCOC(=O)C(c1ccccc1)C1CCCCC1.Cl` (stereo unspecified) [DROFENINE HYDROCHLORIDE], the residual activity came to 99.44% in data set [1] and 112.3% in data set [2].

In the case of `C=C1[C@@H]2CC[C@@]3(C)[C@H](c4ccoc4)OC(=O)C[C@]13O[C@H]1CC(=O)C(C)(C)[C@H](CC(=O)OC)[C@]12C` [METHYLANGOLENSATE], the residual activity in data set [1] amounted to 20.27%; in data set [2], 33.7%.

With `CCCCC1C(=O)N(c2ccccc2)N(c2ccc(O)cc2)C1=O` (stereo unspecified) [OXYPHENBUTAZONE ANHYDROUS], the residual activity in data set [1] was found to be 42.04%; in data set [2], 83.15%.

On to `CCN(CC)CCOc1ccc(C(=C(Cl)c2ccccc2)c2ccccc2)cc1` [CLOMIPHENE], for which the results for the residual activity in data set [1] and in data set [2] were 99.41% and 126.3%, respectively.

Consider `COc1ccc2c(c1)O[C@@H]1COc3cc(OC)c(OC)cc3[C@@H]1C2=O` [MUNDOSERONE], for which the figures for the residual activity in data set [1] and in data set [2] were 118.1% and 110.7%, respectively.

As for `O=C(O)c1cccc(O)c1O` [2,3-DIHYDROXYBENZOIC ACID], the residual activity in data set [1] is 94.43%; in data set [2], 84.74%.

Regarding `C=C(C)/C=C1/C=CC(=O)C(C)=C1` [RETUSOQUINONE], the residual activity in data set [1] is 96.97%; in data set [2] it was 92.24%.

On to `COC(=O)C[C@H]1C(C)(C)[C@H](O)[C@@H]2CC3=C4CC(O)O[C@@H](c5ccoc5)[C@@]4(C)CCC3[C@]1(C)C2=O` (stereo partly drawn) [3,16-DIDEOXYMEXICANOLIDE-3alpha-DIOL], for which the residual activity amounted to 67.63% in data set [1] and 96.33% in data set [2].

As to `COC(=O)NC(=S)Nc1ccccc1NC(=S)NC(=O)OC` [THIOPHANATE METHYL], the values for the residual activity in data set [1] and in data set [2] were 119% and 92.95%, respectively.

As for `COc1ccc2c(c1)OC[C@@H](Cc1ccc(OC)c(OC)c1)[C@@H]2O` [3-DESHYDROXYSAPPANOL TRIMETHYL ETHER], the figures for the residual activity in data set [1] and in data set [2] were 100.6% and 104.1%, respectively.

Regarding `CNC(=O)Oc1ccc2c(c1)[C@]1(C)CCN(C)[C@@H]1N2C.CNC(=O)Oc1ccc2c(c1)[C@]1(C)CCN(C)[C@@H]1N2C.O=S(=O)(O)O` [PHYSOSTIGMINE SULFATE], the residual activity worked out at 101.7% in data set [1] and 99.93% in data set [2].

On to `CCc1cn([C@H]2C[C@H](O)[C@@H](CO)O2)c(=O)[nH]c1=O` [EDOXUDINE], for which the residual activity in data set [1] was determined as 92.48%; in data set [2], 109.7%.

Turning to `COc1cc(/C=C/C(=O)O)cc(OC)c1OC` [SINAPIC ACID METHYL ETHER], the residual activity in data set [1] is 80.23%; in data set [2], 88.51%.

Consider `C[C@]12CC[C@H](Cl)C[C@@H]1CC[C@@H]1[C@@H]2CC[C@]2(C)C(=O)CC[C@@H]12`, for which the residual activity is reported as 67.79% in data set [1] and 70.61% in data set [2].

As to `CC(C)[C@H](N)C(=O)OCCOCn1cnc2c(=O)[nH]c(N)nc21.Cl` [VALACYCLOVIR HYDROCHLORIDE], the values for the residual activity in data set [1] and in data set [2] were 68.57% and 80.91%, respectively.

In the case of `CN(C)CCCN1c2ccccc2Sc2ccccc21.Cl` [PROMAZINE HYDROCHLORIDE], the residual activity in data set [1] is 82.72%; in data set [2] it was 81.19%.

Take `CN(C)CCN(Cc1cccs1)c1ccccn1.Cl` [METHAPYRILENE HYDROCHLORIDE]: the residual activity in data set [1] came out at 83.03%; in data set [2], 82.96%.

For `CC(C)=CCc1c(O)cc(C)oc1=O` [2-ISOPRENYL-3-HYDROXY-5-METHYL-a-PYRONE], the residual activity in data set [1] was found to be 101.1%; in data set [2], 115.1%.

With `COc1ccc2c(c1)c(CC(=O)OCC(=O)O)c(C)n2C(=O)c1ccc(Cl)cc1` [ACEMETACIN], the residual activity in data set [1] is given as 57.75%; in data set [2], 84.99%.

Turning to `CC(=O)Nc1nnc(S(N)(=O)=O)s1` [ACETAZOLAMIDE], the residual activity in data set [1] was 90.74%; in data set [2], 84.51%.

Regarding `N#C/C(=C\c1ccc(O)cc1)C(=O)O` [alpha-CYANO-4-HYDROXYCINNAMIC ACID], the residual activity was determined as 112.8% in data set [1] and 105.3% in data set [2].

For the molecule `CC[C@@]1(O)C[C@H](O[C@H]2C[C@H](N(C)C)[C@H](O)[C@H](C)O2)c2c(cc3c(c2O)C(=O)c2c(O)cccc2C3=O)[C@H]1C(=O)OC.Cl` [AKLAVINE HYDROCHLORIDE], the residual activity in data set [1] is 70.22%; in data set [2] it was 83.91%.

Turning to `COc1c(-c2coc3cc4c(cc3c2=O)CC(OC(C)=O)C(C)(C)O4)ccc2c1C=CC(C)(C)O2` (stereo unspecified) [MUNDULONE ACETATE], the residual activity in data set [1] was 71.78%; in data set [2] it was 87.47%.

Take `COc1ccc(CCC(=O)c2c(O)cc(O[C@@H]3O[C@H](CO)[C@@H](O)[C@H](O)[C@H]3O[C@@H]3O[C@@H](C)[C@H](O)[C@@H](O)[C@H]3O)cc2O)cc1O` [NEOHESPERIDIN DIHYDROCHALCONE]: the residual activity is on record as 53.61% in data set [1] and 198.2% in data set [2].

In the case of `COc1c2ccoc2c(OC)c2oc(=O)ccc12` [ISOPIMPINELLIN], the residual activity was 84.51% in data set [1] and 29.02% in data set [2].

On to `COc1c2ccoc2cc2oc(=O)ccc12` [BERGAPTEN], for which the figures for the residual activity in data set [1] and in data set [2] were 93.84% and 97.44%, respectively.

As to `C=C1C(=O)O[C@@H]2C[C@@]3(C)CCC[C@H](C)C3=C[C@H]12` [HELENINE], the values for the residual activity in data set [1] and in data set [2] were 116% and 115.2%, respectively.

For the molecule `CC(=O)Oc1cccc(C(=O)O)c1OC(C)=O` [DIPYROCETYL], the residual activity was found to be 115.7% in data set [1] and 102.1% in data set [2].

In the case of `CCOC(=O)C1C(C=C(C)C)C1(C)C` (stereo unspecified) [CHRYSANTHEMIC ACID, ETHYL ESTER], the residual activity was found to be 83.17% in data set [1] and 89.36% in data set [2].

Turning to `CC(=O)Nc1c(I)cc(I)c(C(=O)O)c1I` [ACETRIZOIC ACID], the residual activity stood at 133.1% in data set [1] and 98.63% in data set [2].

Consider `NC(=O)c1ccc[n+]([C@@H]2O[C@H](COP(=O)([O-])OP(=O)(O)OC[C@H]3O[C@@H](n4cnc5c(N)ncnc54)[C@H](OP(=O)(O)O)[C@@H]3O)[C@@H](O)[C@H]2O)c1` [SODIUM beta-NICOTINAMIDE ADENINE DINUCLEOTIDE PHOSPHATE], for which the results for the residual activity in data set [1] and in data set [2] were 190% and 105.1%, respectively.

For `COc1ccc(-c2c(O)c3c(OC)c4c(cc3oc2=O)OC(C)(C)CC4)cc1` [DIHYDROROBUSTIC ACID], the residual activity in data set [1] was determined as 73.61%; in data set [2] it was 70.94%.

Consider `NC[C@H]1O[C@H](O[C@H]2[C@H](O)[C@@H](O[C@H]3O[C@H](CO)[C@@H](O)[C@H](N)[C@H]3O)[C@H](N)C[C@@H]2N)[C@H](N)[C@@H](O)[C@@H]1O.O=S(=O)(O)O` [BEKANAMYCIN SULFATE], for which the values for the residual activity in data set [1] and in data set [2] were 101.9% and 118.1%, respectively.

For the molecule `OC[C@H]1O[C@@H](n2cnc3c(O)ncnc32)[C@H](O)[C@@H]1O` [INOSINE], the residual activity in data set [1] is 110.7%; in data set [2], 107.3%.

For the molecule `CO[C@@H]1[C@@H](OC(N)=O)[C@@H](O)[C@H](Oc2ccc3c([O-])c(NC(=O)c4ccc(O)c(CC=C(C)C)c4)c(=O)oc3c2C)OC1(C)C.[Na+]` [NOVOBIOCIN SODIUM], the residual activity in data set [1] came to 56.21%; in data set [2], 47.15%.

As for `CC1=C(O)C(=O)C=C2C1=CC=C1[C@@]2(C)CC[C@@]2(C)[C@@H]3C[C@](C)(C(=O)O)CC[C@]3(C)CC[C@]12C` [CELASTROL], the residual activity in data set [1] worked out at 147.4%; in data set [2], 90.72%.
